In assay [1] the test system is LNCaP. In words: Antiproliferative activities against human LNCaP cells assessed as cell viability measured after 72 hrs by CCK8 assay. The assay is classed as functional, cell-based. For orientation: Formazan colour is commonly taken as a measure of viable cells.
Assay [2] has as its system LNCaP C4-2B. In words: Antiproliferative activities against human LNCaP C4-2B cells assessed as cell viability measured after 72 hrs by CCK8 assay. The format is functional, cell-based.
Assay [3] concerns LNCaP C4-2B. In words: Inhibition of colony formation in human LNCaP C4-2B cells measured after 14 days incubation by Crystal-violet staining based assay. The format is functional, cell-based. To be noted: dose 10-40 µM, time 14.0 day.
The test system of assay [4] is LNCaP C4-2B. In words: Induction of apoptosis in human LNCaP C4-2B cells assessed as apoptotic cells at 5 uM measured after 48 hrs of incubation by Annexin V-FITC staining based flow cytometry relative to control. The assay is classed as functional.
Assay [5] concerns LNCaP C4-2B. In words: Induction of cell cycle arrest in human LNCaP C4-2B cells assessed as accumulation cells at G2/M phase at 20 uM measured after 48 hrs incubation by flow cytometry (reference value: 10.85%). The format is functional. On the technique in general: Flow cytometry measures light scatter and fluorescence of single cells or particles in a stream.
The test system of assay [6] is LNCaP C4-2B. In words: Induction of cell cycle arrest in human LNCaP C4-2B cells assessed as accumulation cells at S phase at 40 uM measured after 48 hrs incubation by flow cytometry (reference value: 18.33%). The assay is classed as functional.
In assay [7] the test system is LNCaP C4-2B. Description: Induction of cell cycle arrest in human LNCaP C4-2B cells assessed as accumulation cells at S phase at 5 uM measured after 48 hrs incubation by flow cytometry (reference value: 18.33%). The format is functional.
For assay [8], the system named is LNCaP C4-2B. In words: Induction of cell cycle arrest in human LNCaP C4-2B cells assessed as accumulation cells at G2/M phase at 10 uM measured after 48 hrs incubation by flow cytometry (reference value: 10.85%). The format is functional.
The subject of assay [9] is LNCaP C4-2B. Description: Induction of apoptosis in human LNCaP C4-2B cells assessed as apoptotic cells at 10 uM measured after 48 hrs of incubation by Annexin V-FITC staining based flow cytometry relative to control. The assay is classed as functional.
For assay [10], the system named is LNCaP C4-2B. Description: Inhibition of AR protein expression in human LNCaP C4-2B cells measured after 48 hrs by Western blot analysis. The assay is classed as functional, cell-based. To be noted: dose 12.5-50 µM. On the technique in general: In western blotting, separated proteins are transferred to a membrane and probed.
Assay [11] concerns LNCaP C4-2B. Description: Induction of cell cycle arrest in human LNCaP C4-2B cells assessed as accumulation cells at G0/G1 phase at 5 uM measured after 48 hrs incubation by flow cytometry (reference value: 70.82%). The assay is classed as functional.
The test system of assay [12] is LNCaP C4-2B. In words: Induction of cell cycle arrest in human LNCaP C4-2B cells assessed as accumulation cells at S phase at 10 uM measured after 48 hrs incubation by flow cytometry (reference value: 18.33%). The format is functional.
The test system of assay [13] is LNCaP C4-2B. Description: Induction of cell cycle arrest in human LNCaP C4-2B cells assessed as accumulation cells at G0/G1 phase at 40 uM measured after 48 hrs incubation by flow cytometry (reference value: 70.82%). The assay is classed as functional.
The subject of assay [14] is LNCaP C4-2B. Description: Induction of cell cycle arrest in human LNCaP C4-2B cells assessed as accumulation cells at G2/M phase at 5 uM measured after 48 hrs incubation by flow cytometry (reference value: 10.85%). The assay is classed as functional.
Assay [15] concerns LNCaP C4-2B. In words: Induction of cell cycle arrest in human LNCaP C4-2B cells assessed as accumulation cells at G2/M phase at 40 uM measured after 48 hrs incubation by flow cytometry (reference value: 10.85%). The format is functional.
The subject of assay [16] is LNCaP C4-2B. Description: Induction of cell cycle arrest in human LNCaP C4-2B cells assessed as accumulation cells at G0/G1 phase at 10 uM measured after 48 hrs incubation by flow cytometry (reference value: 70.82%). The format is functional.
In assay [17] the test system is LNCaP C4-2B. In words: Induction of cell cycle arrest in human LNCaP C4-2B cells assessed as accumulation cells at G0/G1 phase at 20 uM measured after 48 hrs incubation by flow cytometry (reference value: 70.82%). The assay is classed as functional.
Assay [18] deals with LNCaP C4-2B. Description: Induction of cell cycle arrest in human LNCaP C4-2B cells assessed as accumulation cells at S phase at 20 uM measured after 48 hrs incubation by flow cytometry (reference value: 18.33%). The format is functional.
Assay [19] concerns LNCaP C4-2B. In words: Induction of apoptosis in human LNCaP C4-2B cells assessed as apoptotic cells at 40 uM measured after 48 hrs of incubation by Annexin V-FITC staining based flow cytometry relative to control. The assay is classed as functional.
Assay [20] concerns LNCaP C4-2B. Description: Induction of apoptosis in human LNCaP C4-2B cells assessed as apoptotic cells at 20 uM measured after 48 hrs of incubation by Annexin V-FITC staining based flow cytometry relative to control. The format is functional.
Assay [21] deals with LNCaP. Description: Inhibition of AR protein expression in human LNCaP cells measured after 48 hrs by Western blot analysis. As to conditions: dose 12.5-50 µM. The assay is classed as functional, cell-based.

Data on 17 molecules can be found in ChEMBL document CHEMBL5523674, “Design, synthesis, and biological evaluation of 2-(naphthalen-1-yloxy)-N-phenylacetamide derivatives as TRPM4 inhibitors for the treatment of prostate cancer” (Bioorg Med Chem, 2024).

In general, IC50 refers to the midpoint of a concentration-inhibition curve.

Each structure is given as a SMILES string. Calls of active or inactive are those of the source. The rule behind the calls is not given here.

Turning to `COC(=O)c1ccc(Cl)cc1NC(=O)COc1cccc2cnccc12`, in the assay on LNCaP [1], the IC50 was 25.4 µM.

In the case of `COC(=O)c1ccc(Cl)cc1NC(=O)COc1ccc(Cl)c2ccccc12`, the IC50 in the assay on LNCaP [1] amounted to 19.9 µM.

`COC(=O)c1ccc(OC)cc1NC(=O)COc1cccc2ccccc12`: the IC50 with LNCaP [1] worked out at 19.6 µM.

In the case of `COC(=O)c1ccc(Cl)cc1NC(=O)COc1cccc2ccccc12`, the figures for the 50% inhibitory concentration (IC50) in the assay with LNCaP [1] and in the assay with LNCaP C4-2B [2] were 17.1 µM and 33.5 µM, respectively.

On to `CNC(=O)c1ccc(Cl)cc1NC(=O)COc1cccc2ccccc12`, for which the IC50 in the assay on LNCaP [1] worked out at 33.9 µM.

Turning to `COC(=O)c1ccc(Cl)cc1NC(=O)COc1ccc(F)c2ccccc12`, the outcome in the assay with LNCaP [1] was inactive.

`COC(=O)c1ccc(C(F)(F)F)cc1NC(=O)COc1cccc2ccccc12`: in the assay with LNCaP [1], the outcome was inactive.

With `COC(=O)c1ccc(C)cc1NC(=O)COc1cccc2ccccc12`, the outcome in the assay on LNCaP [1] was inactive.

Take `O=C(COc1cccc2ccccc12)Nc1cc(Cl)ccc1C(=O)O`: the IC50 in the assay with LNCaP [1] is over 50 µM. Also, in the assay on LNCaP C4-2B [2], the result was inactive.

Turning to `COC(=O)c1ccc(Br)cc1NC(=O)COc1cccc2ccccc12`, the IC50 in the assay on LNCaP [1] came to 48.5 µM.

In the case of `COC(=O)c1cc(F)c(Cl)cc1NC(=O)COc1cccc2ccccc12`, in the assay on LNCaP [1], the IC50 came to 42.1 µM.

Regarding `COC(=O)c1ccc(Cl)cc1NC(=O)COc1ccnc2ccccc12`, in the assay on LNCaP [1], the IC50 turned out to be 32.5 µM.

For the molecule `COC(=O)c1ccc(F)cc1NC(=O)COc1cccc2ccccc12`, the IC50 in the assay on LNCaP [1] is 32 µM.

`COC(=O)c1ccc(Cl)cc1NC(=O)COc1ccc(Br)c2ccccc12`: the inhibition result in the assay with LNCaP C4-2B [3] was “Dose-Dependent Effect”. Also, the IC50 was 13.3 µM with LNCaP [1] and over 50 µM in the assay on LNCaP C4-2B [2].

As for `COC(=O)c1ccc(I)cc1NC(=O)COc1cccc2ccccc12`, the Activity in the assay on LNCaP C4-2B [4] turned out to be 34.5%; with LNCaP C4-2B [5], 10.12%; in the assay on LNCaP C4-2B [6] it was 11.54%; in the assay with LNCaP C4-2B [7], 18.11%; in the assay on LNCaP C4-2B [8] it was 11.44%; in the assay with LNCaP C4-2B [9], 79%. The Activity with LNCaP C4-2B [11] worked out at 70.84%; in the assay with LNCaP C4-2B [12] it was 17.53%; in the assay with LNCaP C4-2B [13] it was 79.62%; with LNCaP C4-2B [14], 11.05%; in the assay on LNCaP C4-2B [15], 8.84%; with LNCaP C4-2B [16], 71.03%. Moreover, the Activity in the assay with LNCaP C4-2B [17] is reported as 77.27%; in the assay on LNCaP C4-2B [18], 12.61%; in the assay on LNCaP C4-2B [19] it was 96.6%; in the assay with LNCaP C4-2B [20], 92.9%. The inhibition result in the assay with LNCaP C4-2B [10] and with LNCaP [21] was “Dose-Dependent Effect” each time. The half-inhibitory concentration (IC50) in the assay on LNCaP [1] is 12.3 µM; in the assay with LNCaP C4-2B [2], 8.76 µM.

On to `COC(=O)c1ccc(Cl)cc1NC(=O)C(C)Oc1cccc2ccccc12` (stereo not given), for which, in the assay with LNCaP [1], the IC50 came to 19 µM.

`COC(=O)c1ccc(Cl)cc1NC(=O)COc1ccc(OC)c2ccccc12`: the outcome in the assay on LNCaP [1] was inactive.
